Test results published in the supplement of paper PMC11061612.

Key:
GAK (Melanoma) = assay: Bliss excess, mean over the matrix (fraction); higher = more synergy
In short: (§1)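 Cell lines grown in DMEM/F12 or RPMI with 10% FBS were plated in 1536-well plates and held 24 hours at 37°C, 5% CO2 before 72 hours of exposure to two-drug dose matrices, with DMSO typically at 0.2%. CellTiter-Glo 2.0 luminescence gave viability, which was converted to inhibition. Vehicle wells were set to 0 and blank wells to 1. Combination Emax is the second-highest inhibition in the matrix, and Bliss excess is the observed combination effect minus the expected EA + EB − EA·EB, where EA and EB are the single-agent effects.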

[1] = test system: NAMALWA (Burkitt's Lymphoma); assay: as above
In short: as §1

[2] = test system: RCC-JW (Kidney Carcinoma); assay: as above
In short: as §1

[3] = test system: IA-LM (Non-Small Cell Lung Carcinoma); assay: as above
In short: as §1

SK-N-SH (Neuroblastoma) = assay: as above
In short: as §1

[4] = test system: ZR-75-30 (Breast Carcinoma); assay: as above
In short: as §1

[5] = test system: T84 (Colorectal Carcinoma); assay: combination Emax (second highest fraction inhibited in the dose matrix, 72 h); higher = more inhibition; extreme values may be limits of the assay
In short: as §1

[6] = test system: SNU-423 (Hepatocellular Carcinoma); assay: as above
In short: as §1

IST-MEL1 (Melanoma) = assay: as above
In short: as §1

[7] = test system: BxPC-3 (Pancreatic Carcinoma); assay: as above
In short: as §1

[8] = test system: NAMALWA (Burkitt's Lymphoma); assay: as above
In short: as §1

[9] = test system: NCI-H3118 (Head and Neck Carcinoma); assay: as above
In short: as §1

[10] = test system: LS-1034 (Colorectal Carcinoma); assay: as above
In short: as §1

NCI-H226 (Mesothelioma) = assay: as above
In short: as §1

KALS-1 (Glioblastoma) = assay: as above
In short: as §1

[11] = test system: SCC-4 (Oral Cavity Carcinoma); assay: as above
In short: as §1

[12] = test system: MONO-MAC-6 (Acute Myeloid Leukemia); assay: as above
In short: as §1

[13] = test system: LCLC-103H (Non-Small Cell Lung Carcinoma); assay: as above
In short: as §1

[14] = test system: ZR-75-30 (Breast Carcinoma); assay: as above
In short: as §1

ES6 (Ewing's Sarcoma) = assay: as above
In short: as §1
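For Bliss excess, mean over the matrix in this document: after 72 h of two-drug dosing.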

Row | Compound | Bliss excess (GAK (Melanoma)) | Bliss excess [1] | Bliss excess [2] | Bliss excess [3] | Bliss excess (SK-N-SH (Neuroblastoma)) | Bliss excess [4] | combination Emax [5] | combination Emax [6] | combination Emax (IST-MEL1 (Melanoma)) | combination Emax [7] | combination Emax [8] | combination Emax [9] | combination Emax [10] | combination Emax (NCI-H226 (Mesothelioma)) | combination Emax (KALS-1 (Glioblastoma)) | combination Emax [11] | combination Emax [12] | combination Emax [13] | combination Emax [14] | combination Emax (ES6 (Ewing's Sarcoma))
1 | Cc1cc2ncnn2cc1Nc1ncc2c(n1)n(C1CCOCC1)c(=O)n2C [AZD7648] + COc1cc([C@@H]2c3cc4c(cc3[C@@H](O[C@@H]3O[C@@H]5CO[C@@H](C)O[C@H]5[C@H](O)[C@H]3O)[C@H]3COC(=O)[C@H]23)OCO4)cc(OC)c1O [Etoposide] (first compound max 10 µM, 7x7, partner max 10 µM) | 0.0732 | 0.0745 | 0.132 | -0.0116 | 0.0634 | -0.0044 | 0.398 | 0.555 | 0.638 | 0.223 | 0.985 | 0.768 | 0.335 | 0.332 | 0.787 | 0.469 | 1 | 0.584 | 0.258 | 0.36
2 | N#Cc1cnc(Nc2cc(NC[C@H]3CNCCO3)c(C(F)(F)F)cn2)cn1 [SRA737] + Nc1ccn([C@@H]2O[C@H](CO)[C@@H](O)C2(F)F)c(=O)n1 [Gemcitabine] (first compound max 10 µM, 7x7, partner max 0.3 µM) | -0.011 | 0.0256 | 0.0179 | -0.0365 | -0.0168 | -0.0408 | 0.827 | 0.745 | 0.709 | 0.644 | 1 | 0.772 | 0.919 | 0.462 | 0.87 | 0.758 | 1 | 0.844 | 0.312 | 0.599
3 | C[C@@H](Oc1cc(-c2cnn(C3CCNCC3)c2)cnc1N)c1c(Cl)ccc(F)c1Cl [Crizotinib] + CC1=C(C(=CC=C1)Cl)NC(=O)C2=CN=C(S2)NC3=CC(=NC(=N3)C)N4CCN(CC4)CCO [Dasatinib] (first compound max 10 µM, 7x7, partner max 2 µM) | -0.0786 | 0.0586 | -0.065 | -0.0154 | 0.0049 | -0.0431 | 0.58 | 0.934 | 0.76 | 0.938 | 0.934 | 0.881 | 0.835 | 0.558 | 0.925 | 0.913 | 0.947 | 0.722 | 0.036 | 0.751
4 | N#Cc1cnc(Nc2cc(NC[C@H]3CNCCO3)c(C(F)(F)F)cn2)cn1 [SRA737] + O=c1[nH]cc(F)c(=O)[nH]1 [5-Fluorouracil] (first compound max 10 µM, 7x7, partner max 20 µM) | -0.012 | 0.0157 | -0.0355 | -0.0622 | -0.0499 | -0.0283 | 0.785 | 0.477 | 0.528 | 0.555 | 0.967 | 0.575 | 0.77 | 0.145 | 0.792 | 0.628 | 1 | 0.559 | 0.169 | 0.161
5 | Cc1c2c(nn1C)CSCc1cc(n(C)n1)CSc1cc(c3ccccc3c1)OCCCc1c(C(=O)O)n(C)c3c-2c(Cl)ccc13 [AZD5991] + Nc1ccn([C@@H]2O[C@H](CO)[C@@H](O)C2(F)F)c(=O)n1 [Gemcitabine] (first compound max 1 µM, 7x7, partner max 0.3 µM) | 0.01 | -0.0379 | 0.0274 | -0.0384 | -0.0198 | 0.0283 | 0.521 | 0.43 | 0.606 | 0.47 | 1 | 0.818 | 0.614 | 0.173 | 0.542 | 0.53 | 1 | 0.513 | 0.36 | 0.529
6 | O=C(c1cc(Cc2n[nH]c(=O)c3ccccc23)ccc1F)N1CCN(C(=O)C2CC2)CC1 [Olaparib] + COc1nnc2ccc(N3CCC(c4ccc(OCCN5CCN(C)C(=O)[C@H]5C)cc4)CC3)nn12 [AZD5153] (first compound max 10 µM, 7x7, partner max 1 µM) | -0.0642 | -0.0519 | -0.143 | -0.153 | -0.0402 | -0.0502 | 0.0881 | 0.302 | 0.252 | 0.403 | 0.751 | 0.519 | 0.453 | 0.376 | 0.548 | 0.322 | 0.882 | 0.343 | 0.207 | 0.292
